Common to all, as to assay type: cell-based
One test relates to C/EBPα. Nature of the test: Western blot, protein expression of C/EBPα during adipogenesis of 3T3-L1 cells. The settings on record: adipogenesis terminated at day 7, increasing concentrations. The method, then: (§1) 3T3-L1 preadipocytes were cultured in DMEM (D5796, high glucose) supplemented with 10% FBS, penicillin, and streptomycin at 37 °C in 5% CO2 atmosphere and 80% humidity. For long-term experiments, cells were seeded onto 6-well plates and grown to confluence. Adipogenesis was induced 48 h post confluence (day 0) by addition of culture medium containing […], […] dexamethasone, and 500 µM 3-isobutyl-1-methylxan-thine (IBMX). Experiments were performed in the absence and presence of increasing concentrations of ethanolic citrus extracts (total peel, flavedo and albedo layers) or commercially available citropten, bergamottin and 5-geranyloxy-7-methox-ycoumarin. Ethanol (0.1%) served as vehicle. At days 3 and 5, medium was replaced by fresh medium supplemented with 10 pg/ml and 0.2 ug/ml insulin, respectively, with and without compounds. At day 7, adipogenesis was terminated by harvest of cells. In a short-term approach, differentiation was performed for 24 h. […]
(§2) Lysates were denaturated by boiling with 5-fold Laemmli buffer for 10 min at 95 °C. […] After incubation of membranes with respective horseradish peroxidase-conjugated IgGs immunoreactive bands were visualized using Western Bright™ ECL or Western Bright™ Quantum substrates (Biozym, Austria) and chemiluminescence was quantified with the Fusion SL Imaging System (VWR International GmbH).
In general terms: Immunoblotting shows a protein as a band on a membrane.

A further test concerns AMPK. Briefly: Western blot, expression and phosphorylation of AMPK, short-term experiments in 3T3-L1 cells. The settings on record: 10 µg/ml, short-term (24 h), compared to controls. How it is done:
as §1, §2

The test system of test [1] is C/EBPδ. Briefly: Dual luciferase reporter assay, transcriptional activity of C/EBPδ in HEK293 cells. The settings on record: 10 µg/ml, 24 h. The method, then:
Transcriptional activities of C/EBPβ and C/EBP6 were measured using the C/EBP Cignal™ Reporter Assay (CCS-001L; dual luc) from Qiagen (Germany) and the Dual-Luciferase® Reporter Assay System (E1910; Promega Corporation, Germany) as recently described (Mussbacher et al., 2019, Sci Rep, 9(1), 15403. https://doi.org/10.1038/s41598-019-51579-x). pcDNA-mC/EBPβ (Addgene plasmid # 49198) and pcDNA-mC/EBP6 (Addgene plasmid #12559) were gifts from Jed Friedman and Peter Johnson, respectively. At 80-90% confluence, HEK293 cells were co-transfected with C/EBPβ or C/EBPδ DNA (1 µg each) and Cignal Reporter (0,5 µg) in serum- and antibiotic-free medium using TurboFect™ Transfection Reagent (ThermoFisher Scientific). Cells were incubated for 24 h in the absence and presence of citropten, bergamottin or 5-geranyloxy-7-methoxycoumarin. Thereafter, cells were harvested and lysed according to the manufacturer's instructions. Activities of firefly luciferase and Renilla luciferase were sequentially measured as biolumi-nescence using the GloMax Discover System GM3000 (Promega) as described. Luminescence of each sample was normalized to Renilla luciferase activity.

For test [2], the system named is acetyl-CoA carboxylase (ACC). Nature of the test: Western blot, expression and phosphorylation of ACC, short-term experiments in 3T3-L1 cells. How it is done: as §1, §2
The test system of test [3] is C/EBPδ. Nature of the test: Western blot, protein expression of C/EBPδ in 3T3-L1 cells. The settings on record: 10 pg/ml each. The method, then: as §1, §2
Test [4] deals with C/EBPβ. Briefly: Dual luciferase reporter assay, transcriptional activity of C/EBPβ in HEK293 cells. The settings on record: 24 h; for transcriptional activity of C/EBPβ: 10 µg/ml. The method, then:
At 80-90% confluence, HEK293 cells were co-transfected with C/EBPβ or C/EBPδ DNA (1 µg each) and Cignal Reporter (0,5 µg) in serum- and antibiotic-free medium using TurboFect™ Transfection Reagent (ThermoFisher Scientific). Cells were incubated for 24 h in the absence and presence of citropten, bergamottin or 5-geranyloxy-7-methoxycoumarin. Thereafter, cells were harvested and lysed according to the manufacturer's instructions. Activities of firefly luciferase and Renilla luciferase were sequentially measured as biolumi-nescence using the GloMax Discover System GM3000 (Promega) as described. Luminescence of each sample was normalized to Renilla luciferase activity.
(In general: Reporter assays use an easily measured gene product as a stand-in for the process of interest.)

The test system of test [5] is C/EBPβ. Nature of the test: Western blot, protein expression of C/EBPβ (isoforms LAP*, LAP, LIP) in 3T3-L1 cells. The settings on record: for protein expression of C/EBPβ (isoforms LAP*, LAP and LIP): 10 µg/ml each. How it is done: 3T3-L1 preadipocytes were cultured in DMEM (D5796, high glucose) supplemented with 10% FBS, penicillin, and streptomycin at 37 °C in 5% CO2 atmosphere and 80% humidity. For long-term experiments, cells were seeded onto 6-well plates and grown to confluence. Adipogenesis was induced 48 h post confluence (day 0) by addition of culture medium containing […], 0.4 pg/ml dexamethasone, and 500 µM 3-isobutyl-1-methylxan-thine (IBMX). Experiments were performed in the absence and presence of increasing concentrations of ethanolic citrus extracts (total peel, flavedo and albedo layers) or commercially available citropten, bergamottin and 5-geranyloxy-7-methox-ycoumarin. Ethanol (0.1%) served as vehicle. At days 3 and 5, medium was replaced by fresh medium supplemented with 10 pg/ml and 0.2 ug/ml insulin, respectively, with and without compounds. At day 7, adipogenesis was terminated by harvest of cells. In a short-term approach, differentiation was performed for 24 h. Cells were harvested by treatment with RIPA buffer (#R0278, Sigma) containing EDTA (2 mM) and cOmplete Protease Inhibitor Cocktail (total volume of 150 µl per well) and scraped off mechanically. Cell suspensions were transferred to Eppendorf vials, homogenized by repeated sonication, and kept on ice for 10 min. Aliquots were stored at 4 °C for measurement of triglycerides (TGs) and total cellular protein content. For Western blot experiments homogenates were stored at -80 °C.
Lysates were denaturated by boiling with 5-fold Laemmli buffer for 10 min at 95 °C. Samples containing 15 µg of protein were separated by SDS-PAGE on 8-12% gels for 45 min at 180 V. Thereafter, proteins were transferred onto nitrocellulose membranes for 90 min (240 mA). After blocking with Tris-buffered saline containing 0.1% (v/v) Tween-20 and 5% non-fat dry milk for 1 h (ambient temperature) membranes were incubated overnight at 4 °C with primary antibodies. After incubation of membranes with respective horseradish peroxidase-conjugated IgGs immunoreactive bands were visualized using Western Bright™ ECL or Western Bright™ Quantum substrates (Biozym, Austria) and chemiluminescence was quantified with the Fusion SL Imaging System (VWR International GmbH).

Another test relates to PPARγ. Briefly: Western blot, protein expression of PPARγ during adipogenesis of 3T3-L1 cells. The settings on record: adipogenesis terminated at day 7, increasing concentrations. The method, then: as §1, §2
For test [6], the system named is mature 3T3-L1 cells. Briefly: Forskolin-stimulated lipolysis, release of free fatty acids into the medium. The settings on record: for forskolin-induced lipolysis: 3 h. How it is done:
(§3) 3T3-L1 preadipocytes were seeded onto 6-well plates and cultured in DMEM (D5796; high glucose) supplemented with 10% fetal bovine serum, penicillin, and streptomycin at 37 °C in 5% CO2 atmosphere and 80% humidity. Differentiation of cells were performed for 10 days as described in 2.4. Mature adipocytes were washed twice in low glucose containing DMEM (D4947). Lipolysis was induced by addition of the adenylyl cyclase activator forskolin (10 µM) and cells were incubated in medium containing 2% fatty acid-free BSA for up to 6 h in the absence and presence of coumarins. In basal lipolysis experiments, forskolin was excluded. Aliquots of the medium were collected and release of free fatty acids (FFAs) was measured using the NEFA Assay Kit from FUJIFILM Wako Chemicals Europe GmbH (Neuss, Germany) (ASC-ACOD method) according to the manufacturer's instructions.

For test [7], the system named is mature 3T3-L1 cells. Briefly: Basal lipolysis, release of free fatty acids into the medium (forskolin excluded). The arrangement: dose or concentration left out as unconfirmed. The settings on record: without forskolin, 3 h. The method, then: as §3

Turning to `CC(C)=CCC/C(C)=C/COc1c2ccoc2cc2oc(=O)ccc12` [bergamottin, 4-[(2E)-3,7-dimethylocta-2,6-dienoxy]furo[3,2-g]chromen-7-one], the “protein expression of C/EBPα” value in the test with C/EBPα was “concentration-dependently suppressed”. Moreover, the “phosphorylation of AMPK at Thr172” value in the test on AMPK is recorded as “significantly increased”. Besides, the “transcriptional activity of C/EBP6 (C/EBPδ-dependent transcriptional activity)” value with C/EBPδ [1] is given as “not affected”. For the same compound, the “phosphorylation of ACC (Ser79)” value in test [2] (10 µg/ml, short-term experiments, p<0.05 vs vehicle-treated cells) is given as “significantly increased”. The “protein expression of C/EBP6” value with C/EBPδ [3] is “not affected”. Besides, the “transcriptional activity of C/EBPβ” value in the test with C/EBPβ [4] is “not affected”. In addition, the “protein expression of C/EBPβ (isoforms LAP*, LAP and LIP)” value in the test with C/EBPβ [5] was “not affected”. Also, the “protein expression of PPARγ” value with PPARγ is recorded as “concentration-dependently suppressed”. Besides, the forskolin-induced lipolysis entry in the test on mature 3T3-L1 cells [6] (30 µM (10 µg/ml)) was “did not significantly enhance”.

For the compound `COc1cc(OC/C=C(\C)CCC=C(C)C)c2ccc(=O)oc2c1` [5-geranyloxy-7-methoxycoumarin, 5-[(2E)-3,7-dimethylocta-2,6-dienoxy]-7-methoxychromen-2-one], the “protein expression of C/EBPα” value in the test on C/EBPα was “concentration-dependently suppressed”. Moreover, the “phosphorylation of AMPK at Thr172” value in the test with AMPK is on record as “more than doubled”. Also, the “transcriptional activity of C/EBP6 (C/EBPδ-dependent transcriptional activity)” value in the test with C/EBPδ [1] was “tendency to decrease”; in the test on C/EBPδ [1] (listed as 5-geranyloxy-7-methoxy-coumarin), “not affected”. The fold induction at 10 µg/mL in [2] (Mus musculus, 3T3-L1, short-term (24 h), compared to controls, read-out: phosphorylation of acetyl-CoA carboxylase (ACC) at Ser79) is approximately 3. Further, the “protein expression of C/EBP6” value in the test with C/EBPδ [3] is “not affected”. Further, the “transcriptional activity of C/EBPβ” value in the test on C/EBPβ [4] is on record as “not affected”. In addition, in the test on C/EBPβ [5], the “protein expression of C/EBPβ (isoforms LAP*, LAP and LIP)” value was “not affected”. Moreover, the “protein expression of PPARγ” value in the test on PPARγ is “concentration-dependently suppressed”.

For `O=c1ccc2cc(O)c(O)cc2o1` [esculetin, 6,7-dihydroxy-2H-chromen-2-one], in the test on mature 3T3-L1 cells [6] (56 µM (10 µg/ml)), the forskolin-induced lipolysis entry is recorded as “did not significantly enhance”.

As to `COc1ccc2ccc(=O)oc2c1` [herniarin, 7-methoxy-2H-chromen-2-one], the forskolin-induced lipolysis entry with mature 3T3-L1 cells [6] (141 µM (25 µg/ml)) is “did not significantly enhance”.

For `COc1cc2oc(=O)ccc2cc1O` [isoscopoletin, 6-hydroxy-7-methoxy-2H-chromen-2-one], the forskolin-induced lipolysis result with mature 3T3-L1 cells [6] (56 µM (10 µg/ml)) was “did not significantly enhance”.

As to `COc1cc(OC)c2ccc(=O)oc2c1` [citropten, 5,7-dimethoxy-2H-chromen-2-one], in the test on mature 3T3-L1 cells [7], the “basal release of FFAs” value is on record as “increased”. For the same compound, in the test with C/EBPβ [4] (citropten 25 µg/ml), the “activity of C/EBPβ” value is listed as “increased”. In addition, the “expression of LIP” value with C/EBPβ [5] (25 µg/ml, p<0.05 vs vehicle-treated cells) is reported as “significantly upregulated”. Further, the “protein expression of C/EBPβ” value in the test on C/EBPβ [5] (citropten 25 µg/ml) is “increased”. Besides, the forskolin-induced lipolysis result in the test with mature 3T3-L1 cells [6] (10 pg/ml (≈ 48 µM)) is on record as “significant effect”. For the same compound, in the test with mature 3T3-L1 cells [6] (Mus musculus, 3T3-L1, 25 µg/ml (≈ 120 µM), 3-4 h after induction of lipolysis, read-out: effect on forskolin-stimulated lipolysis (release of FFAs), maximal), the activity at 120 µM lay in the range of 185 to 190%. Moreover, in the test with mature 3T3-L1 cells [6] (forskolin 10 µM, time- and concentration-dependent manner), the forskolin-stimulated lipolysis result is “enhanced”. Also, the “release of FFAs” value in the test with mature 3T3-L1 cells [6] (forskolin-stimulated, 25 µg/ml (≈ 120 µM), within 0.5 and 6 h) is recorded as “significantly increased”.

The record behind these values is patent publication EP4461294A1, “LIPOLYTIC AND ANTIADIPOGENIC COUMARIN DERIVATIVES” (Karl-Franzens-Universität Graz, priority 2023, dated 2024).
